Data taken from US12415794B2 (Edgewise Therapeutics, Inc., priority 2018, dated 2025).

Key:
[1] = target: skeletal myofibrils (myosin ATPase); test: Skeletal Myofibril ATPase Assay; assay type: biochemical
Experimental: FIG. 7 depicts the buffer preparation procedures of Buffer A and Buffer B for the skeletal myofibril ATPase assay described in Example 12. Buffers were stored on ice until use.
Example 12: Skeletal Myofibril ATPase Assay
Overview: Myosin ATPase activity is assessed by using a coupled reaction system, in which ADP generated by the myosin ATPase function is coupled to the disappearance of NADH through the pyruvate kinase/lactate dehydrogenase (PK-LDH) system. ATPase activity produces ADP, which is used as a substrate for PK to produce pyruvate and regenerate ATP. The pyruvate is then used as a substrate by LDH to oxidize NADH to NAD+. The rate of the reaction is monitored through the time-dependent disappearance of NADH using absorbance at 340 nm. Inhibition of ATPase activity by the assayed compounds is indicated by a reduced rate of NADH loss, relative to vehicle-treated controls, over the experimental time window. To assess the selectivity of the assayed compounds for skeletal myofibrils, the compounds are counter-screened in cardiac myofibrils.
Materials: The following stock solutions and reagents were used in the Skeletal Myofibril ATPase Assay:
Stock Solutions of pCa buffer. Combine PIPES, CaCl2, and EGTA solutions with 70 mL of water. Adjust pH to 7.0 and bring final volume to 100 mL.
Skeletal Myofibril ATPase Assay Procedure: BSA, ATP, NADH, PEP, and DTT solutions were thawed at room temperature, then transferred to ice. Pellet-frozen myofibrils were transferred with approximately twice the required volume into a sufficiently large tube and capped. Myofibrils were thawed by rolling in a water bath for approximately 15 min at room temperature and cooled on ice. Buffers A and B were prepared by adjusting volumes as necessary for required number of wells and stored on ice. 0.5 μL of the compounds to be assayed were added into wells. 25 μL of Buffer A was dispensed into the wells, followed by 25 μL of Buffer B. The wells were measured for absorbance at 340 nm, using a kinetic protocol in which the wells are read every 1.5-2 min for 45 min. The slope of the data was approximated by subtracting the minimum absorbance value from the maximum value for each well. This was accomplished either in the SoftMax Pro software or in a spreadsheet program such as Excel. Using GraphPad Prism 8.0, the data was normalized by assigning a value of 100% to the 1% DMSO vehicle wells. Typically, a normalized 0% value was simply assigned to a (Max−Min) value of 0. The normalized data was fit to a Four Parameter Logistic sigmoidal equation, constraining the bottom to be 0 or greater. Compounds of Table 1, 2, and 3 were tested and results of the assay appear in Tables 4a-4c. A=IC50 is less than or equal to 10 μM; B=IC50 is greater than 10 μM and less than 100 μM; C=IC50 is greater than 100 μM.

[2] = target: T1, cardiac myofibrils (myosin ATPase); test: Cardiac Myofibril ATPase Assay (counter screen); assay type: biochemical; details: myofibrils 1.0 mg/mL, KCl omitted
T1 construct: frozen myofibril pellets obtained from cardiac tissue; from tissue
T1 sequence (P12883 whole entry): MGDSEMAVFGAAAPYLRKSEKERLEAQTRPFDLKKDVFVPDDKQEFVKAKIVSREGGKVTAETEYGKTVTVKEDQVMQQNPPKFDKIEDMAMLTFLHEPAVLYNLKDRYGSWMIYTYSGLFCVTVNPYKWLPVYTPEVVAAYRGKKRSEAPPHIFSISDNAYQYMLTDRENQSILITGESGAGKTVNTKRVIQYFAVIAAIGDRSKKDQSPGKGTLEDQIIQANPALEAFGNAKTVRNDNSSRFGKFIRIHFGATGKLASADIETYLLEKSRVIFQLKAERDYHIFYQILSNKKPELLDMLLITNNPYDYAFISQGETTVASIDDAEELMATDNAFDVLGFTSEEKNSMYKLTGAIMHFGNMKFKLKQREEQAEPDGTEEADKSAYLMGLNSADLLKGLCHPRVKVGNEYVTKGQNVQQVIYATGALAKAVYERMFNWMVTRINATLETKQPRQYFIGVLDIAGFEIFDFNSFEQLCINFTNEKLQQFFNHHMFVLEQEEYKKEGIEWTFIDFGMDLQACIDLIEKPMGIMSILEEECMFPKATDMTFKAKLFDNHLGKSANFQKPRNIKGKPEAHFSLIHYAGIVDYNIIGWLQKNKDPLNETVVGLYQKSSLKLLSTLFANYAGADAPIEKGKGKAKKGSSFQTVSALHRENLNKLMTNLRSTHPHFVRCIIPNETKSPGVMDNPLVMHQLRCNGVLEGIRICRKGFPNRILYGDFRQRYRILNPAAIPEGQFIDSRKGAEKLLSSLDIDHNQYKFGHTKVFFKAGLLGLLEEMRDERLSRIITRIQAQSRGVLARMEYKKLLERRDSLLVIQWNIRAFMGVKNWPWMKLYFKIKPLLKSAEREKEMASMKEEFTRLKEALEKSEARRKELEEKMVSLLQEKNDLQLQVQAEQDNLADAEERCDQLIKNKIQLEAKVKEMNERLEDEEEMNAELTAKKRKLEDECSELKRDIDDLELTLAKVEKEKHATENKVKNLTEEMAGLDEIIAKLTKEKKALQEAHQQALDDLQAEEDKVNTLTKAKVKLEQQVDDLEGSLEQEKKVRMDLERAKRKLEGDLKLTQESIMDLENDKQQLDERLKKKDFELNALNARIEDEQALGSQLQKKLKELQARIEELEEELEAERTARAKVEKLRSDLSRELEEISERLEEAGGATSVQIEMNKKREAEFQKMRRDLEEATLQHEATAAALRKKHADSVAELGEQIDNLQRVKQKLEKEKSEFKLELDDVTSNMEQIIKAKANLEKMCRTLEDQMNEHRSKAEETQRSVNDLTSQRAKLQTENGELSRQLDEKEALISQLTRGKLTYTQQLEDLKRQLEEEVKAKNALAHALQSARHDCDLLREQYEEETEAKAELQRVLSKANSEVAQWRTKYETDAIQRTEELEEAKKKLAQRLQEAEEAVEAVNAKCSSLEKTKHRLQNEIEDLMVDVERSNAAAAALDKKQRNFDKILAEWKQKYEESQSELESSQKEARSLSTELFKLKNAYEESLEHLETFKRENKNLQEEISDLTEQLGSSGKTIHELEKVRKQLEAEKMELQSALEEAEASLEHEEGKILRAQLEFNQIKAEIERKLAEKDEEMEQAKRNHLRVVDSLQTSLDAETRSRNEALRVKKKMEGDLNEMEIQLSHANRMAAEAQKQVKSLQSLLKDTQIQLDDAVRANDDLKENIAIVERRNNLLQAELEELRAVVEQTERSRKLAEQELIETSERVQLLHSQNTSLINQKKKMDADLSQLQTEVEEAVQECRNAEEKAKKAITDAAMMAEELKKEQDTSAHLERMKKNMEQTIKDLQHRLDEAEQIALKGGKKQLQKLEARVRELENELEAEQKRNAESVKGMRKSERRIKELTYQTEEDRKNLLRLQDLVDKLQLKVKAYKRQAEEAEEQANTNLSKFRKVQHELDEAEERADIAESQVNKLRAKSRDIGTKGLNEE
T1 sequence (P08590 whole entry partner): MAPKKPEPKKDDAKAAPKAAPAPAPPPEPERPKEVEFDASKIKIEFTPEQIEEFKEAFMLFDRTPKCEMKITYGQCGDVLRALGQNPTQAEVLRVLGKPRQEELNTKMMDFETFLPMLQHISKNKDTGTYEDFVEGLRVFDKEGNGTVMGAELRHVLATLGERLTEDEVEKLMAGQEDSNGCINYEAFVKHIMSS
T1 sequence (P10916 whole entry partner): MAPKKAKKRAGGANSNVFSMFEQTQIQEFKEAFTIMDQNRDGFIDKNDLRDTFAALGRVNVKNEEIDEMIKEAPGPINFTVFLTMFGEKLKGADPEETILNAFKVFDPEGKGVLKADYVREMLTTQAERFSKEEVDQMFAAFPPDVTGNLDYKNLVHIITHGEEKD
How it was run: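 Myosin ATPase rate followed via NADH disappearance at 340 nm, coupled through pyruvate kinase and lactate dehydrogenase, using cardiac myofibril pellets (final 1.0 mg/mL) without KCl. IC50 values reflect rate reduction compared with vehicle-treated wells.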

Row | Compound | IC50 ([1]; Table 4C) [µM] | IC50 ([2]; Table 5C) [µM] | IC50 ([1]; Table 4A) [µM] | IC50 ([2]; Table 5A) [µM] | further results
1 | COc1ccc(-c2ccc(=O)n(CC(=O)NCc3cnn(C)c3)n2)cc1 [IIIa-32, 2-(3-(4-methoxyphenyl)-6-oxopyridazin-1(6H)-yl)-N-((1-methyl-1H-pyrazol-4-yl)methyl) acetamide] | > 100 | > 100 | – | – | –
2 | COc1ccc(-c2ccc(=O)n(CC(=O)NCc3cccc(Cl)c3)n2)cc1 [IIIa-8, N-(3-chlorobenzyl)-2-(3-(4-methoxyphenyl)-6-oxopyridazin-1(6H)-yl)acetamide] | < 10 | > 100 | – | – | –
3 | COc1ccc(-c2ccc(=O)n(CC(=O)NCCC(C)C)n2)cc1 [IIIb-48, N-isopentyl-2-(3-(4-methoxyphenyl)-6-oxopyridazin-1(6H)-yl)acetamide] | > 100 | > 100 | – | – | –
4 | COc1ccc(-c2ccc(=O)n(CC(=O)NCc3cccc(F)c3)n2)cc1 [IIIb-32, N-(3-fluorobenzyl)-2-(3-(4-methoxyphenyl)-6-oxopyridazin-1(6H)-yl)acetamide] | 10 to 100 | > 100 | – | – | –
5 | CC(C)Oc1ccc(-c2ccc(=O)n(CC(=O)NCc3ccccc3Cl)n2)cc1 [IIIa-2, N-(2-chlorobenzyl)-2-(3-(4-isopropoxyphenyl)-6-oxopyridazin-1(6H)-yl)acetamide] | < 10 | > 100 | – | – | –
6 | COc1ccc(-c2ccc(=O)n(CC(=O)NCc3ccc(F)cc3)n2)c(F)c1 [IIIb-46, 2-(3-(2-fluoro-4-methoxyphenyl)-6-oxopyridazin-1(6H)-yl)-N-(4-fluorobenzyl)acetamide] | > 100 | > 100 | – | – | –
7 | COc1ccc(Cl)cc1NC(=O)Cn1nc(-c2ccccc2)ccc1=O [IIIc-62, N-(5-chloro-2-methoxyphenyl)-2-(6-oxo-3-phenylpyridazin-1(6H)-yl)acetamide] | > 100 | > 100 | – | – | –
8 | COCCNC(=O)Cn1nc(-c2ccc(OC)cc2)ccc1=O [IIIb-47, N-(2-methoxyethyl)-2-(3-(4-methoxyphenyl)-6-oxopyridazin-1(6H)-yl)acetamide] | > 100 | > 100 | – | – | –
9 | COc1ccc(-c2ccc(=O)n(CC(=O)NCc3ccco3)n2)cc1 [IIIb-37, N-(furan-2-ylmethyl)-2-(3-(4-methoxyphenyl)-6-oxopyridazin-1(6H)-yl)acetamide] | 10 to 100 | > 100 | – | – | –
10 | CCc1cccc(NC(=O)Cn2nc(-c3ccc(C)cc3)ccc2=O)c1 [IIIc-1, N-(3-ethylphenyl)-2-(6-oxo-3-(p-tolyl)pyridazin-1(6H)-yl)acetamide] | < 10 | > 100 | – | – | –
11 | CNC(=O)Cn1nc(-c2ccc(OC)cc2)ccc1=O [IIIa-21, 2-(3-(4-methoxyphenyl)-6-oxopyridazin-1(6H)-yl)-N-methylacetamide] | 10 to 100 | > 100 | – | – | –
12 | Cn1ccc2c(NC(=O)Cn3nc(-c4ccc(Cl)cc4)ccc3=O)cccc21 [IIIc-20, 2-(3-(4-chlorophenyl)-6-oxopyridazin-1(6H)-yl)-N-(1-methyl-1H-indol-4-yl)acetamide] | < 10 | 10 to 100 | – | – | –
13 | O=C(Cn1nc(-c2ccccc2)ccc1=O)NCCC1=CCCCC1 [IIIc-48, N-(2-(cyclohex-1-en-1-yl)ethyl)-2-(6-oxo-3-phenylpyridazin-1(6H)-yl)acetamide] | < 10 | > 100 | – | – | –
14 | Cc1ccc(-c2ccc(=O)n(CC(=O)NCCc3ccccc3)n2)cc1 [IIIc-3, 2-(6-oxo-3-(p-tolyl)pyridazin-1(6H)-yl)-N-phenethylacetamide] | < 10 | > 100 | – | – | –
15 | CCNC(=O)Cn1nc(-c2ccc(OCC(F)F)cc2)ccc1=O [II-7, 2-(3-(4-(2,2-difluoroethoxy)phenyl)-6-oxopyridazin-1(6H)-yl)-N-ethylacetamide] | – | – | – | – | IC50 ([1]; Table 4B): < 10 µM; IC50 ([2]; Table 5B): 10 to 100 µM
16 | COc1ccc(-c2ccc(=O)n(CC(=O)Nc3ccc(C(C)C)cc3)n2)cc1 [IIIb-56, N-(4-isopropylphenyl)-2-(3-(4-methoxyphenyl)-6-oxopyridazin-1(6H)-yl)acetamide] | > 100 | > 100 | – | – | –
17 | COc1ccc(-c2ccc(=O)n(CC(=O)Nc3cc(Cl)ccc3Cl)n2)c(F)c1 [IIIb-13, N-(2,5-dichlorophenyl)-2-(3-(2-fluoro-4-methoxyphenyl)-6-oxopyridazin-1(6H)-yl)acetamide] | < 10 | > 100 | – | – | –
18 | CC(=O)Nc1ccc(-c2ccc(=O)n(CC(=O)NC(C)C)n2)cc1 [II-14, 2-(3-(4-acetamidophenyl)-6-oxopyridazin-1(6H)-yl)-N-isopropylacetamide] | – | – | – | – | IC50 ([1]; Table 4B): 10 to 100 µM; IC50 ([2]; Table 5B): > 100 µM
19 | CCOc1ccc(-c2ccc(=O)n(CCNC(=O)CC3CCCC3)n2)cc1 [IIIb-43, 2-cyclopentyl-N-(2-(3-(4-ethoxyphenyl)-6-oxopyridazin-1(6H)-yl)ethyl)acetamide] | > 100 | > 100 | – | – | –
20 | CC(C)NC(=O)Cn1nc(-c2ccc(OC(F)(F)F)cc2)ccc1=O [II-4] | – | – | – | – | IC50 ([1]; Table 4B): < 10 µM; IC50 ([2]; Table 5B): > 100 µM
21 | COc1ccc(-c2ccc(=O)n(CC(=O)NCCC3=CCCCC3)n2)c(F)c1 [IIIb-7, N-(2-(cyclohex-1-en-1-yl)ethyl)-2-(3-(2-fluoro-4-methoxyphenyl)-6-oxopyridazin-1(6H)-yl)acetamide] | < 10 | > 100 | – | – | –

Continued, in another order:

Row | IC50 ([1]; Table 4C) [µM] | IC50 ([2]; Table 5C) [µM] | IC50 ([1]; Table 4A) [µM] | IC50 ([2]; Table 5A) [µM] | Compound | further results
22 | – | – | < 10 | 10 to 100 | CCNC(=O)Cn1nc(-c2ccc(N(C)C3CCC3)nc2)ccc1=O [Compound I-61, 2-(3-(6-(cyclobutyl(methyl)amino)pyridin-3-yl)-6-oxopyridazin-1(6H)-yl)-N-ethylacetamide] | –
23 | – | – | < 10 | > 100 | CCCOc1ncc(-c2ccc(=O)n(CC(=O)NC3CCC3)n2)cn1 [Compound I-73, N-cyclobutyl-2-(6-oxo-3-(2-propoxypyrimidin-5-yl)pyridazin-1(6H)-yl)acetamide] | –
24 | – | – | < 10 | > 100 | O=C(Cn1nc(-c2ccc(OC(F)F)nc2)ccc1=O)NC1(c2ccccc2)CCC1 [Compound I-68, 2-(3-(6-(difluoromethoxy)pyridin-3-yl)-6-oxopyridazin-1(6H)-yl)-N-(1-phenylcyclobutyl)acetamide] | –
25 | – | – | < 10 | > 100 | CCNC(=O)Cn1nc(-c2ccc(OC(F)F)nc2)ccc1=O [Compound I-7, 2-(3-(6-(difluoromethoxy)pyridin-3-yl)-6-oxopyridazin-1(6H)-yl)-N-ethylacetamide] | –
26 | – | – | 10 to 100 | > 100 | CCNC(=O)Cn1nc(-c2ccc(OC(F)(F)F)nc2)ccc1=O [Compound I-14, N-ethyl-2-(6-oxo-3-(6-(trifluoromethoxy)pyridin-3-yl)pyridazin-1(6H)-yl)acetamide] | –
27 | – | – | < 10 | > 100 | CC[C@@H](C)NC(=O)Cn1nc(-c2ccc(OC(F)F)nc2)ccc1=O [Compound I-66, (R)-N-(sec-butyl)-2-(3-(6-(difluoromethoxy)pyridin-3-yl)-6-oxopyridazin-1(6H)-yl)acetamide] | –
28 | – | – | > 100 | > 100 | CCNC(=O)Cn1nc(-c2ccc(OCCCN(C)C)nc2)ccc1=O [Compound I-28, 2-(3-(6-(3-(dimethylamino)propoxy)pyridin-3-yl)-6-oxopyridazin-1(6H)-yl)-N-ethylacetamide] | –
29 | – | – | > 100 | > 100 | CCNC(=O)Cn1nc(-c2ccc(OC(F)F)[n+]([O-])c2)ccc1=O [Compound I-65, 2-(difluoromethoxy)-5-(1-(2-(ethylamino)-2-oxoethyl)-6-oxo-1,6-dihydropyridazin-3-yl)pyridine 1-oxide] | –
30 | – | – | > 100 | > 100 | CCNC(=O)Cn1nc(-c2ccc(N3CC4(C3)CS(=O)(=O)C4)nc2)ccc1=O [Compound I-32, 2-(3-(6-(2,2-dioxido-2-thia-6-azaspiro[3.3]heptan-6-yl)pyridin-3-yl)-6-oxopyridazin-1(6H)-yl)-N-ethylacetamide] | –
31 | – | – | > 100 | > 100 | CCNC(=O)Cn1nc(-c2ccc(OC(C)C)nc2)ccc1=O [Compound I-27, N-ethyl-2-(3-(6-isopropoxypyridin-3-yl)-6-oxopyridazin-1(6H)-yl)acetamide] | –
